Measured values published in the supplement of paper PMC10307832.

Key:
Assay in all cases: relative viability (nuclei count vs DMSO), 5 days (fraction); higher = more cells survive
17-AAG + AZD7762 = compound: C=CCNC1=C2C[C@@H](C)C[C@H](OC)[C@H](O)[C@@H](C)/C=C(\C)[C@H](OC(N)=O)[C@@H](OC)/C=C\C=C(/C)C(=O)NC(=CC1=O)C2=O [17-AAG] + NC(=O)Nc1cc(-c2cccc(F)c2)sc1C(=O)N[C@H]1CCCNC1 [AZD7762] (partner 0.2 µM)
Procedure, shortened: (§1)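 Each reported value is a median over duplicate plates. It expresses relative viability: treated-well nuclei count divided by vehicle-well nuclei count. Lung cancer cell lines in 1536-well plates were dosed by pin tool a day after seeding, alone with one drug or with a fixed anchor-drug dose plus five library-drug doses (not always all listed) in √10 steps, and nuclei were counted after 5 days.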

17-AAG + Phenformin = compound: C=CCNC1=C2C[C@@H](C)C[C@H](OC)[C@H](O)[C@@H](C)/C=C(\C)[C@H](OC(N)=O)[C@@H](OC)/C=C\C=C(/C)C(=O)NC(=CC1=O)C2=O [17-AAG] + N=C(N)NC(=N)NCCc1ccccc1 [Phenformin] (partner 250 µM)
Procedure, shortened: as §1

17-AAG + Pictilisib = compound: C=CCNC1=C2C[C@@H](C)C[C@H](OC)[C@H](O)[C@@H](C)/C=C(\C)[C@H](OC(N)=O)[C@@H](OC)/C=C\C=C(/C)C(=O)NC(=CC1=O)C2=O [17-AAG] + CS(=O)(=O)N1CCN(Cc2cc3nc(-c4cccc5[nH]ncc45)nc(N4CCOCC4)c3s2)CC1 [Pictilisib] (partner 1 µM)
Procedure, shortened: as §1

17-AAG + Alpelisib = compound: C=CCNC1=C2C[C@@H](C)C[C@H](OC)[C@H](O)[C@@H](C)/C=C(\C)[C@H](OC(N)=O)[C@@H](OC)/C=C\C=C(/C)C(=O)NC(=CC1=O)C2=O [17-AAG] + Cc1nc(NC(=O)N2CCC[C@H]2C(N)=O)sc1-c1ccnc(C(C)(C)C(F)(F)F)c1 [Alpelisib] (partner 2 µM)
Procedure, shortened: as §1

## NCI-H1944
17-AAG + AZD7762; first compound 0.00128 µM
  relative viability: 0.497
17-AAG + AZD7762; first compound 0.004048 µM
  relative viability: 0.488
17-AAG + AZD7762; first compound 0.0128 µM
  relative viability: 0.237
17-AAG + AZD7762; first compound 0.04048 µM
  relative viability: 0.155
17-AAG + AZD7762; first compound 0.128 µM
  relative viability: 0.138
17-AAG + Phenformin; first compound 0.00128 µM
  relative viability: 0.187
17-AAG + Phenformin; first compound 0.004048 µM
  relative viability: 0.194
17-AAG + Phenformin; first compound 0.0128 µM
  relative viability: 0.127
17-AAG + Phenformin; first compound 0.04048 µM
  relative viability: 0.12
17-AAG + Phenformin; first compound 0.128 µM
  relative viability: 0.114
17-AAG + Pictilisib; first compound 0.00128 µM
  relative viability: 0.352
17-AAG + Pictilisib; first compound 0.004048 µM
  relative viability: 0.349
17-AAG + Pictilisib; first compound 0.0128 µM
  relative viability: 0.324
17-AAG + Pictilisib; first compound 0.04048 µM
  relative viability: 0.28
17-AAG + Pictilisib; first compound 0.128 µM
  relative viability: 0.24
17-AAG + Alpelisib; first compound 0.00128 µM
  relative viability: 0.883
17-AAG + Alpelisib; first compound 0.004048 µM
  relative viability: 0.88
17-AAG + Alpelisib; first compound 0.0128 µM
  relative viability: 0.85
17-AAG + Alpelisib; first compound 0.04048 µM
  relative viability: 0.682
17-AAG + Alpelisib; first compound 0.128 µM
  relative viability: 0.281

## NCI-H1975
17-AAG + AZD7762; first compound 0.00128 µM
  relative viability: 0.753
17-AAG + AZD7762; first compound 0.004048 µM
  relative viability: 0.656
17-AAG + AZD7762; first compound 0.0128 µM
  relative viability: 0.331
17-AAG + AZD7762; first compound 0.04048 µM
  relative viability: 0.203
17-AAG + AZD7762; first compound 0.128 µM
  relative viability: 0.216
17-AAG + Phenformin; first compound 0.00128 µM
  relative viability: 0.385
17-AAG + Phenformin; first compound 0.004048 µM
  relative viability: 0.287
17-AAG + Phenformin; first compound 0.0128 µM
  relative viability: 0.204
17-AAG + Phenformin; first compound 0.04048 µM
  relative viability: 0.13
17-AAG + Phenformin; first compound 0.128 µM
  relative viability: 0.0987
17-AAG + Pictilisib; first compound 0.00128 µM
  relative viability: 0.3
17-AAG + Pictilisib; first compound 0.004048 µM
  relative viability: 0.176
17-AAG + Pictilisib; first compound 0.0128 µM
  relative viability: 0.116
17-AAG + Pictilisib; first compound 0.04048 µM
  relative viability: 0.119
17-AAG + Pictilisib; first compound 0.128 µM
  relative viability: 0.103
17-AAG + Alpelisib; first compound 0.00128 µM
  relative viability: 0.583
17-AAG + Alpelisib; first compound 0.004048 µM
  relative viability: 0.365
17-AAG + Alpelisib; first compound 0.0128 µM
  relative viability: 0.147
17-AAG + Alpelisib; first compound 0.04048 µM
  relative viability: 0.139
17-AAG + Alpelisib; first compound 0.128 µM
  relative viability: 0.124

## NCI-H1993
17-AAG + AZD7762; first compound 0.00128 µM
  relative viability: 0.936
17-AAG + AZD7762; first compound 0.004048 µM
  relative viability: 0.644
17-AAG + AZD7762; first compound 0.0128 µM
  relative viability: 0.325
17-AAG + AZD7762; first compound 0.04048 µM
  relative viability: 0.339
17-AAG + AZD7762; first compound 0.128 µM
  relative viability: 0.248
17-AAG + Phenformin; first compound 0.00128 µM
  relative viability: 0.507
17-AAG + Phenformin; first compound 0.004048 µM
  relative viability: 0.451
17-AAG + Phenformin; first compound 0.0128 µM
  relative viability: 0.472
17-AAG + Phenformin; first compound 0.04048 µM
  relative viability: 0.397
17-AAG + Phenformin; first compound 0.128 µM
  relative viability: 0.404
17-AAG + Pictilisib; first compound 0.00128 µM
  relative viability: 0.797
17-AAG + Pictilisib; first compound 0.004048 µM
  relative viability: 0.806
17-AAG + Pictilisib; first compound 0.0128 µM
  relative viability: 0.667
17-AAG + Pictilisib; first compound 0.04048 µM
  relative viability: 0.6
17-AAG + Pictilisib; first compound 0.128 µM
  relative viability: 0.638
17-AAG + Alpelisib; first compound 0.00128 µM
  relative viability: 0.722
17-AAG + Alpelisib; first compound 0.004048 µM
  relative viability: 0.657
17-AAG + Alpelisib; first compound 0.0128 µM
  relative viability: 0.658
17-AAG + Alpelisib; first compound 0.04048 µM
  relative viability: 0.528
17-AAG + Alpelisib; first compound 0.128 µM
  relative viability: 0.434

## NCI-H2085
17-AAG + AZD7762; first compound 0.00128 µM
  relative viability: 0.983
17-AAG + AZD7762; first compound 0.004048 µM
  relative viability: 1.02
17-AAG + AZD7762; first compound 0.0128 µM
  relative viability: 1
17-AAG + AZD7762; first compound 0.04048 µM
  relative viability: 1
17-AAG + AZD7762; first compound 0.128 µM
  relative viability: 0.551
17-AAG + Phenformin; first compound 0.00128 µM
  relative viability: 0.688
17-AAG + Phenformin; first compound 0.004048 µM
  relative viability: 0.734
17-AAG + Phenformin; first compound 0.0128 µM
  relative viability: 0.68
17-AAG + Phenformin; first compound 0.04048 µM
  relative viability: 0.595
17-AAG + Phenformin; first compound 0.128 µM
  relative viability: 0.406
17-AAG + Pictilisib; first compound 0.00128 µM
  relative viability: 0.474
17-AAG + Pictilisib; first compound 0.004048 µM
  relative viability: 0.416
17-AAG + Pictilisib; first compound 0.0128 µM
  relative viability: 0.448
17-AAG + Pictilisib; first compound 0.04048 µM
  relative viability: 0.475
17-AAG + Pictilisib; first compound 0.128 µM
  relative viability: 0.529
17-AAG + Alpelisib; first compound 0.00128 µM
  relative viability: 0.825
17-AAG + Alpelisib; first compound 0.004048 µM
  relative viability: 1
17-AAG + Alpelisib; first compound 0.0128 µM
  relative viability: 0.934
17-AAG + Alpelisib; first compound 0.04048 µM
  relative viability: 0.852
17-AAG + Alpelisib; first compound 0.128 µM
  relative viability: 0.671

## NCI-H2087
17-AAG + AZD7762; first compound 0.00128 µM
  relative viability: 1.28
17-AAG + AZD7762; first compound 0.004048 µM
  relative viability: 1.3
17-AAG + AZD7762; first compound 0.0128 µM
  relative viability: 0.471
17-AAG + AZD7762; first compound 0.04048 µM
  relative viability: 0.154
17-AAG + AZD7762; first compound 0.128 µM
  relative viability: 0.116
17-AAG + Phenformin; first compound 0.00128 µM
  relative viability: 0.394
17-AAG + Phenformin; first compound 0.004048 µM
  relative viability: 0.232
17-AAG + Phenformin; first compound 0.0128 µM
  relative viability: 0.138
17-AAG + Phenformin; first compound 0.04048 µM
  relative viability: 0.125
17-AAG + Phenformin; first compound 0.128 µM
  relative viability: 0.105
17-AAG + Pictilisib; first compound 0.00128 µM
  relative viability: 0.867
17-AAG + Pictilisib; first compound 0.004048 µM
  relative viability: 0.651
17-AAG + Pictilisib; first compound 0.0128 µM
  relative viability: 0.356
17-AAG + Pictilisib; first compound 0.04048 µM
  relative viability: 0.229
17-AAG + Pictilisib; first compound 0.128 µM
  relative viability: 0.175
17-AAG + Alpelisib; first compound 0.00128 µM
  relative viability: 1.16
17-AAG + Alpelisib; first compound 0.004048 µM
  relative viability: 0.904
17-AAG + Alpelisib; first compound 0.0128 µM
  relative viability: 0.308
17-AAG + Alpelisib; first compound 0.04048 µM
  relative viability: 0.189
17-AAG + Alpelisib; first compound 0.128 µM
  relative viability: 0.165

## NCI-H2126
17-AAG + AZD7762; first compound 0.00128 µM
  relative viability: 0.977
17-AAG + AZD7762; first compound 0.004048 µM
  relative viability: 0.975
17-AAG + AZD7762; first compound 0.0128 µM
  relative viability: 0.885
17-AAG + AZD7762; first compound 0.04048 µM
  relative viability: 0.265
17-AAG + AZD7762; first compound 0.128 µM
  relative viability: 0.231
17-AAG + Phenformin; first compound 0.00128 µM
  relative viability: 0.576
17-AAG + Phenformin; first compound 0.004048 µM
  relative viability: 0.563
17-AAG + Phenformin; first compound 0.0128 µM
  relative viability: 0.305
17-AAG + Phenformin; first compound 0.04048 µM
  relative viability: 0.289
17-AAG + Phenformin; first compound 0.128 µM
  relative viability: 0.271
17-AAG + Pictilisib; first compound 0.00128 µM
  relative viability: 0.509
17-AAG + Pictilisib; first compound 0.004048 µM
  relative viability: 0.533
17-AAG + Pictilisib; first compound 0.0128 µM
  relative viability: 0.492
17-AAG + Pictilisib; first compound 0.04048 µM
  relative viability: 0.316
17-AAG + Pictilisib; first compound 0.128 µM
  relative viability: 0.284
17-AAG + Alpelisib; first compound 0.00128 µM
  relative viability: 0.757
17-AAG + Alpelisib; first compound 0.004048 µM
  relative viability: 0.792
17-AAG + Alpelisib; first compound 0.0128 µM
  relative viability: 0.742
17-AAG + Alpelisib; first compound 0.04048 µM
  relative viability: 0.714
17-AAG + Alpelisib; first compound 0.128 µM
  relative viability: 0.303
